Assay type in all cases: physicochemical
A short description of data set [1]: Stability of vitamins in 35% glucose solution during sterilization (Cycles 1-4) and storage. The settings on record: for concentration, T1M40° C. / concentration, T3M40° C. / concentration, Cycle 3 T0 / concentration, T6M40° C. / concentration, Cycle 4 T0 / concentration, Unsterilized T0 / concentration, T6M40° C., sum of cyanocobalamin and hydroxocobalamin: 35% glucose solution; for concentration, T1M40° C.: 1 month 40° C.; for concentration, T3M40° C.: 3 months 40° C.; for concentration, Cycle 3 T0: Cycle 3 (water spray sterilization, Co = 25 minutes); for concentration, Cycle 3 T0 / concentration, Cycle 4 T0: after sterilization; for concentration, T6M40° C. / concentration, T6M40° C., sum of cyanocobalamin and hydroxocobalamin: 6 months 40° C.; for concentration, Cycle 4 T0: Cycle 4 (water spray sterilization, Co = 19 minutes); for concentration, Unsterilized T0: before sterilization. On the procedure: (§1) For testing the stability of vitamin B12 in formulation as they are typically used in parenteral nutrition, a 35% glucose solution, a 14.2% amino acid formulation such as found, for example, in Olimel N9E (Baxter Int. Inc.), and a 20% lipid emulsion such as found in Clinoleic 20% (Baxter Int. Inc.) were supplemented with different vitamins combinations which always included vitamin B12. KC1 was added into the glucose solution to understand if it has an effect on the stability of vitamin B12. Vitamin B12 was introduced as […]. Ascorbyl palmitate was added to the lipid emulsion formulation as a stabilizing agent due to its antioxidant properties. In addition, two separate micellar solutions (“Vit A” and “Vit B”, see Table 5) comprising certain vitamins to be assessed with regard to degradation (B3, B6, B8, B9, B12, C) but formulated with different excipients as micellization agents were tested for vitamin B12 stability. Vit A consisted of a solution of mixed micelles with ascorbyl palmitate as a potential stability enhancer. Vit B was formulated with a mix of polysorbates, PEG and sorbitol to form micelles. The micellar solutions were prepared by mixing, under high speed, a solution composed of glycocholic acid and lecithins dissolved in water. In case of Vit B, the glycocholic acid and lecithin were replaced by PEG and polysorbate. All formulations were provided in standard flexible containers and overpouched with an aluminum overpouch for subsequent sterilization. For an overview over formulations and conditions see Table 5.
(§2) All samples were submitted to two different sterilization technologies. Steam sterilization targeting a Fo=8 min was. used for large volumes (400/800 ml, Cycle 2) and for small volumes (25/50 ml, Cycle 1) as lined out in Table 5 above. The same samples were sterilized by water spray sterilization with a serial tower continuous sterilization equipment with two different exposure times (Cycles 3 (25 min.) and 4 (19 min.)).
(§3) The vitamin recovery was then compared between the different sterilization cycles and formulations to understand the impact of the formulation and the sterilization technology used on their respective short- and long-term stability. Therefore, after sterilization, the samples were stored at 40° C./[…] for 6 months to evaluate the recovery of vitamin B12 at TIM, T3M and T6M. Besides, backup samples were stored at 5° C. Finally, some samples were also stored at 25° C./40% RH to provide for real time stability data.

A short description of data set [2]: Studies of cyanocobalamin in lipid emulsions (summary statement). On the procedure:
(storage for 3 months at 40° C.), even though hydroxocobalamin seems to remain relatively stable for about 6 months at 40° C.

The nature of data set [3]: Stability of vitamin B12 in 20% lipid emulsion with ascorbyl palmitate during sterilization (Cycles 1-4) and storage. The settings on record: for concentration, T1M40° C.: 1 month 40° C.; for concentration, T6M40° C., sum of cyanocobalamin and hydroxocobalamin: 6 months 40° C. The protocol:
as §1, §2, §3
Vitamin B12 was also considerably degraded in the lipid emulsion (Tables 8 through 11). […] It should thus be avoided in formulations according to the invention.

The mark [4] stands for this setting: Cycle 1 (steam sterilization), 25 ml.
The mark [5] stands for this setting: Cycle 2 (steam sterilization), 800 ml.

The text below walks through data of patent publication US20260232717A1, “PARENTERAL NUTRITION FORMULATION COMPRISING VITAMIN B12” (BAXTER INTERNATIONAL INC., priority 2020, published 2026).

Marks after values point to notes of the source that are not given here. Some results are limits rather than exact numbers.

In the case of `O=C(O)c1cccnc1` [Batch B3, niacin], the entries for the “concentration, T1M40° C.” value in data set [1] (setting [4]) and in data set [1] (setting [5]) were 49300 ng/mL and 50600 ng/mL, respectively. In addition, the “concentration, T3M40° C.” value in data set [1] (setting [4]) is 50200 ng/mL; in data set [1] (setting [5]) it was 51200 ng/mL; in data set [1] (Cycle 3 (water spray)) it was 50300 ng/mL; in data set [1] (Cycle 4 (water spray)), 51000 ng/mL. Moreover, the “concentration, Cycle 3 T0” value in data set [1] turned out to be 50500 ng/mL. In addition, the “concentration, T6M40° C.” value in data set [1] (Cycle 3 (water spray)) was 48270 ng/mL; in data set [1] (Cycle 4 (water spray)), 49350 ng/mL. In data set [1] (800 ml), the “concentration, Cycle 4 T0” value is 50400 ng/mL. Besides, the “concentration, Unsterilized T0” value in data set [1] (Table 6A (25 ml)) turned out to be 51100 ng/mL; in data set [1] (Table 6B (800 ml)), 51100 ng/mL; in data set [1] (Table 7A), 52800 ng/mL; in data set [1] (Table 7B, 800 ml), 52800 ng/mL.

As to `Cc1ncc(CO)c(CO)c1O` [Batch B6, Pyridoxine], the “concentration, T1M40° C.” value in data set [1] (setting [4]) turned out to be 6400 ng/mL; in data set [1] (setting [5]), 5930 ng/mL. In addition, the “concentration, T3M40° C.” value in data set [1] (setting [4]) is 6500 ng/mL; in data set [1] (setting [5]), 6000 ng/mL; in data set [1] (Cycle 3 (water spray)) it was 6100 ng/mL; in data set [1] (Cycle 4 (water spray)), 5900 ng/mL. In data set [1], the “concentration, Cycle 3 T0” value stood at 6230 ng/mL. Further, the results for the “concentration, T6M40° C.” value in data set [1] (Cycle 3 (water spray)) and in data set [1] (Cycle 4 (water spray)) were 6040 ng/mL and 6030 ng/mL, respectively. In addition, the “concentration, Cycle 4 T0” value in data set [1] (800 ml) came out at 6270 ng/mL. Moreover, the “concentration, Unsterilized T0” value in data set [1] (Table 6A (25 ml)) worked out at 6400 ng/mL; in data set [1] (Table 6B (800 ml)), 6400 ng/mL; in data set [1] (Table 7A) it was 6610 ng/mL; in data set [1] (Table 7B, 800 ml), 6610 ng/mL.

Turning to `C/C1=C2/[N-][C@H]([C@H](CC(N)=O)[C@@]2(C)CCC(=O)NC[C@@H](C)OP(=O)([O-])O[C@H]2[C@@H](O)[C@@H](n3cnc4cc(C)c(C)cc43)O[C@@H]2CO)[C@]2(C)N=C(/C(C)=C3N=C(/C=C4N=C1[C@@H](CCC(N)=O)C\4(C)C)[C@@H](CCC(N)=O)[C@]\3(C)CC(N)=O)[C@@H](CCC(N)=O)[C@]2(C)CC(N)=O.[Co+3].[OH-]` [hydroxocobalamin], the “time hydroxocobalamin remains relatively stable” value in data set [2] (lipid emulsions, 40° C.) is recorded as “about 6 months”.

Take cobalamin [Batch B12]: the “concentration, Unsterilized T0” value was found to be 15 ng/mL in data set [3] (20% lipid emulsion with ascorbyl palmitate, Table 8, before sterilization); 14 ng/mL in data set [3] (20% lipid emulsion, Table 10, before sterilization); 14 ng/mL in data set [3] (20% lipid emulsion, Table 11, before sterilization); 6.2 ng/mL in data set [1] (Table 6A (25 ml)); 6.2 ng/mL in data set [1] (Table 6B (800 ml)); 6 ng/mL in data set [1] (Table 7A). The “concentration, Unsterilized T0” value in data set [1] (Table 7B, 800 ml) stood at 6 ng/mL. Moreover, the “concentration, T1M40° C.” value in data set [3] (20% lipid emulsion, Cycle 1 (steam sterilization)) was 4 ng/mL; in data set [3] (20% lipid emulsion, Cycle 2 (steam sterilization)), “<LOD”; in data set [1] (setting [4]) it was 4.5 ng/mL; in data set [1] (setting [5]) it was 4 ng/mL. Further, the “concentration, T3M40° C.” value in data set [3] (20% lipid emulsion, Cycle 1 (steam sterilization), 3 months 40° C.) is “<LOD”; in data set [1] (setting [4]), 3.7 ng/mL; in data set [1] (setting [5]), 3.6 ng/mL; in data set [1] (Cycle 3 (water spray)), 4.1 ng/mL; in data set [1] (Cycle 4 (water spray)), 4.1 ng/mL. Further, the “concentration, Cycle 2 T0” value in data set [3] (20% lipid emulsion, Cycle 2 (steam sterilization), after sterilization) came to 5 ng/mL. For the same molecule, the “concentration, Cycle 3 T0” value in data set [3] (20% lipid emulsion, Cycle 3 (water spray sterilization), after sterilization) was determined as 5 ng/mL; in data set [1], 5.1 ng/mL. The “concentration, T6M40° C., sum of cyanocobalamin and hydroxocobalamin” value in data set [3] (20% lipid emulsion, Cycle 3 (water spray)) is 3.7 ng/mL; in data set [3] (20% lipid emulsion, Table 11, head 'Cycle 3', water spray) it was 5.5 ng/mL; in data set [1] (Cycle 3 (water spray)), 0.0023* mg/L; in data set [1] (Cycle 4 (water spray)), 0.0031* mg/L. The “concentration, T0 after sterilization” value in data set [3] (20% lipid emulsion, Table 11, head 'Cycle 3', water spray sterilization with serial tower continuous equipment) came out at 6 ng/mL. In addition, the “concentration, Cycle 4 T0” value in data set [1] (800 ml) amounted to 5.2 ng/mL.

As to cyanocobalamin, the cyanocobalamin detection entry in data set [2] (lipid emulsions irrespective of oil source, pH or stabilizing agent, T3M40° C.) is “no more cyanocobalamin can be detected”. Besides, in data set [1] (glucose solution, Cycles 1 and 2 (steam sterilization), FIG. 2), the “cyanocobalamin detection after 6 months” value is reported as “no cyanocobalamin can be detected”.
